Experiment [1] has as its system sumoylation levels (SUMO 2/3 conjugates) in HCT-116 cells. Nature of the experiment: HCT-116 4 Hour Cell Assay (Western, SUMO 2/3 conjugates). It counts as cell-based. The following applies: Homo sapiens, HCT-116, 4 h, 4 h treatment, Anti-Sumo 2-3 immunoblot, read-out: HCT-116 Western 4 h IC50 (μM) Ave. Put shortly: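 Cells treated 4 h with 11 three-fold dilutions from 25 μM; lysed in RIPA with NEM and Benzonase. Non-reducing SDS-PAGE immunoblot with anti-SUMO 2/3 mAb, IRDye fluorescent detection; conjugate signal normalized to total protein stain, IC50 from quantified bands.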
(In general: In western blotting, separated proteins are transferred to a membrane and probed.)

For experiment [2], the target named is SAE1 (Homo sapiens (Human), UniProt Q9UBE0+Q9UBT2). Nature of the experiment: SAE High Throughput Biochemical Assay (HTRF), 15 min preincubation. The conditions noted are these: read-out: 15 min preincubation HTRF IC50 (μM) Ave, SAE1 12.5 nM, ATP 100 μM. The procedure, abridged: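 SAE1 (12.5 nM) was preincubated with compound for 15 min at RT in HEPES pH 7.5, 0.1% BSA, 10 mM MgCl2. The reaction was then started with SUMO-GST and UBC9-His (40 nM each) plus 100 μM ATP for 45 min. After KF stop, HTRF (anti-GST-XL665/anti-His-EuK) was read at 2 h and overnight; some compounds were tested singly at 25 micromolar as percent of control.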
Chain of SAE1 (Q9UBE0 whole entry): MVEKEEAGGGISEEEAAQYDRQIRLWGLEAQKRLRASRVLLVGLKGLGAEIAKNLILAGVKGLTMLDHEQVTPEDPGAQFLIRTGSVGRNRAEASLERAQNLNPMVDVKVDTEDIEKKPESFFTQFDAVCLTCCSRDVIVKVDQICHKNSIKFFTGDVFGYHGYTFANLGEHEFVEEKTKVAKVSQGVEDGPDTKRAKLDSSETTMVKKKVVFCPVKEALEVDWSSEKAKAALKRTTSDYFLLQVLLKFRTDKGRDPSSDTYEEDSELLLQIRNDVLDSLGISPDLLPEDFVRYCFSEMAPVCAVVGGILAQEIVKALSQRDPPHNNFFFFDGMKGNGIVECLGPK
Chain of SAE1 (Q9UBT2 whole entry): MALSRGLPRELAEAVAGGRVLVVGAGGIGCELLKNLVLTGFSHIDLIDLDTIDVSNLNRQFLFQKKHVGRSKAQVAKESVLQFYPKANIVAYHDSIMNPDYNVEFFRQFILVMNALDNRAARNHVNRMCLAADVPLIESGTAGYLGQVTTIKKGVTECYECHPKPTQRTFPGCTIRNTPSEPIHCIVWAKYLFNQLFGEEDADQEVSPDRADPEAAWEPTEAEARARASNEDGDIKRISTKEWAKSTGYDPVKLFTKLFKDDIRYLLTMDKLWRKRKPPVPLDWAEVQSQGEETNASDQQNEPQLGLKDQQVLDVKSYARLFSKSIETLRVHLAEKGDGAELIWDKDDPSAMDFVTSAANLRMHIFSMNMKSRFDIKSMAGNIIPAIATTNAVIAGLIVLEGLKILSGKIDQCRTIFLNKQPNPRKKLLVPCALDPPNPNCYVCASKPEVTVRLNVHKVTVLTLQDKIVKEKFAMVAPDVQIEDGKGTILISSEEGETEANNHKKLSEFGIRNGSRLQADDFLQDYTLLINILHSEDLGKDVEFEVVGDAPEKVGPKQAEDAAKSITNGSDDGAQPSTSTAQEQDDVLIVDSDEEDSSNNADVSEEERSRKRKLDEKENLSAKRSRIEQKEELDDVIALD

In general, IC50 refers to the midpoint of a concentration-inhibition curve. As for `CCn1cc(-c2ccccc2[C@@H]2CN(C(=O)/C=C/[C@@H]3C[C@@H]4C[C@@H]4N3)Cc3sc(C#N)cc32)c(C(F)(F)F)n1` [Example 117, (S)-6-((E)-3-((1S,3S,5S)-2-Azabicyclo[3.1.0]hexan-3-yl)acryloyl)-4-(2-(1-ethyl-3-(trifluoromethyl)-1H pyrazol-4-yl)phenyl)-4,5,6,7-tetrahydrothieno[2,3-c]pyridine-2-carbonitrile], the IC50 in experiment [1] came to 0.427 µM; in experiment [2] it was 1.16 µM.

For the molecule `CCn1cc(-c2c(F)cccc2[C@@H]2CN(C(=O)/C=C/[C@@H]3C[C@H](OC)CN3)Cc3sc(C#N)cc32)c(C(F)(F)F)n1` [Example 119, (S)-4-(2-(1-Ethyl-3-(trifluoromethyl)-1H pyrazol-4-yl)-3-fluorophenyl)-6-((E)-3-((2S,4S)-4-methoxypyrrolidin-2-yl)acryloyl)-4,5,6,7-tetrahydrothieno[2,3-c]pyridine-2-carbonitrile], the IC50 came to 0.121 µM in experiment [1] and 0.44 µM in experiment [2].

For `CCn1cc(-c2c(F)cccc2[C@@H]2CN(C(=O)/C=C/[C@@H]3C[C@@H](OC)CN3)Cc3sc(C#N)cc32)c(C(F)(F)F)n1` [Example 120, (S)-4-(2-(1-Ethyl-3-(trifluoromethyl)-1H pyrazol-4-yl)-3-fluorophenyl)-6-((E)-3-((2S,4R)-4-methoxypyrrolidin-2-yl)acryloyl)-4,5,6,7-tetrahydrothieno[2,3-c]pyridine-2-carbonitrile], the figures for the IC50 in experiment [1] and in experiment [2] were 0.383 µM and 0.31 µM, respectively.

In the case of `CCn1cc(-c2c(F)cccc2[C@@H]2CN(C(=O)/C=C/[C@@H]3C[C@@H](F)CN3)Cc3sc(C#N)cc32)c(C(F)(F)F)n1` [Example 121, (S)-4-(2-(1-Ethyl-3-(trifluoromethyl)-1H pyrazol-4-yl)-3-fluorophenyl)-6-((E)-3-((2S,4R)-4-fluoropyrrolidin-2-yl)acryloyl)-4,5,6,7-tetrahydrothieno[2,3-c]pyridine-2-carbonitrile], the IC50 in experiment [1] came to 0.577 µM; in experiment [2] it was 0.43 µM.

`CCn1cc(-c2c(F)cccc2[C@@H]2CN(C(=O)/C=C/[C@@H]3C[C@H](F)CN3)Cc3sc(C#N)cc32)c(C(F)(F)F)n1` [Example 122, (S)-4-(2-(1-Ethyl-3-(trifluoromethyl)-1H pyrazol-4-yl)-3-fluorophenyl)-6-((E)-3-((2S,4S)-4-fluoropyrrolidin-2-yl)acryloyl)-4,5,6,7-tetrahydrothieno[2,3-c]pyridine-2-carbonitrile]: the IC50 was determined as 0.0631 µM in experiment [1] and 0.12 µM in experiment [2].

For the molecule `CCn1cc(-c2c(F)cccc2[C@@H]2CN(C(=O)/C=C/[C@@H]3C[C@@H]4C[C@@H]4N3)Cc3sc(C#N)cc32)c(C(F)(F)F)n1` [Example 123, (S)-6-((E)-3-((1S,3S,5S)-2-Azabicyclo[3.1.0]hexan-3-yl)acryloyl)-4-(2-(1-ethyl-3-(trifluoromethyl)-1H pyrazol-4-yl)-3-fluorophenyl)-4,5,6,7-tetrahydrothieno[2,3-c]pyridine-2-carbonitrile], the IC50 in experiment [1] amounted to 0.178 µM; in experiment [2], 1.17 µM.

Turning to `CCn1cc(-c2ccccc2[C@@H]2CN(C(=O)/C=C/CN)Cc3sc(C#N)cc32)c(C(F)(F)F)n1` [Example 125, (S, E)-6-(4-Aminobut-2-enoyl)-4-(2-(1-ethyl-3-(trifluoromethyl)-1 H-pyrazol-4-yl)phenyl)-4,5,6,7-tetrahydrothieno[2,3-c]pyridine-2-carbonitrile], the IC50 in experiment [1] stood at 0.543 µM; in experiment [2] it was 1.23 µM.

Take `CCn1cc(-c2c(F)cccc2[C@@H]2CN(C(=O)/C=C/CNC(C)(C)C)Cc3sc(C#N)cc32)c(C(F)(F)F)n1` [Example 127, (S, E)-6-(4-(tert-butylamino)but-2-enoyl)-4-(2-(1-ethyl-3-(trifluoromethyl)-1 H pyrazol-4-yl)-3-fluorophenyl)-4,5,6,7-tetrahydrothieno[2,3-c]pyridine-2-carbonitrile]: the figures for the IC50 in experiment [1] and in experiment [2] were 0.225 µM and 1.07 µM, respectively.

As to `Cn1cc(-c2c(F)cccc2[C@@H]2CN(C(=O)/C=C/[C@@H]3CCCN3)Cc3sc(C#N)cc32)c(C(F)(F)F)n1` [Example 128, (S)-4-(3-Fluoro-2-(1-methyl-3-(trifluoromethyl)-1H-pyrazol-4-yl)phenyl)-6-((E)-3-((S)pyrrolidin-2-yl)acryloyl)-4,5,6,7-tetrahydrothieno[2,3-c]pyridine-2-carbonitrile], the results for the IC50 in experiment [1] and in experiment [2] were 0.0658 µM and 0.75 µM, respectively.

For the molecule `CNC/C=C/C(=O)N1Cc2sc(C#N)cc2[C@H](c2cccc(F)c2-c2cn(C)nc2C(F)(F)F)C1` [Example 129, (S,E)-4-(3-Fluoro-2-(1-methyl-3-(trifluoromethyl)-1 H pyrazol-4-yl)phenyl)-6-(4-(methylamino)but-2-enoyl)-4,5,6,7-tetrahydrothieno[2,3-c]pyridine-2-carbonitrile], the IC50 in experiment [1] is 0.249 µM; in experiment [2], 0.505 µM.

With `CCn1cc(-c2ccccc2[C@@H]2CN(C(=O)C#CCN(C)C)Cc3sc(C#N)cc32)c(C(F)(F)F)n1` [Example 132, (S)-6-(4-(Dimethylamino)but-2-ynoyl)-4-(2-(1-ethyl-3-(trifluoromethyl)-1 H-pyrazol-4-yl)phenyl)-4,5,6,7-tetrahydrothieno[2,3-c]pyridine-2-carbonitrile], the IC50 in experiment [1] was 0.547 µM; in experiment [2] it was 0.18 µM.

On to `CCn1cc(-c2ccccc2[C@@H]2CN(C(=O)C#CCN)Cc3sc(C#N)cc32)c(C(F)(F)F)n1` [Example 135, (S)-6-(4-Aminobut-2-ynoyl)-4-(2-(1-ethyl-3-(trifluoromethyl)-1H pyrazol-4-yl)phenyl)-4,5,6,7-tetrahydrothieno[2,3-c]pyridine-2-carbonitrile], for which the figures for the IC50 in experiment [1] and in experiment [2] were 1.2 µM and 0.51 µM, respectively.

`CCn1cc(-c2ccccc2[C@@H]2CN(C(=O)C#CC3(N)CC3)Cc3sc(C#N)cc32)c(C(F)(F)F)n1` [Example 136, (S)-6-(3-(1-Aminocyclopropyl)propioloyl)-4-(2-(1-ethyl-3-(trifluoromethyl)-1 H-pyrazol-4-yl)phenyl)-4,5,6,7-tetrahydrothieno[2,3-c]pyridine-2-carbonitrile]: the values for the IC50 in experiment [1] and in experiment [2] were 2.53 µM and 4.13 µM, respectively.

As to `CCn1cc(-c2ccccc2[C@@H]2CN(C(=O)C#CC3(N)CCCC3)Cc3sc(C#N)cc32)c(C(F)(F)F)n1` [Example 138, (S)-6-(3-(1-Aminocyclopentyl)propioloyl)-4-(2-(1-ethyl-3-(trifluoromethyl)-1 H-pyrazol-4-yl)phenyl)-4,5,6,7-tetrahydrothieno[2,3-c]pyridine-2-carbonitrile], the concentration for half-maximal inhibition (IC50) in experiment [1] was 2.69 µM; in experiment [2], 0.5 µM.

For the molecule `CCn1cc(-c2ccccc2[C@@H]2CN(C(=O)C#CC3CCCN3)Cc3sc(C#N)cc32)c(C(F)(F)F)n1` (stereo partly drawn) [Example 139, (4S)-4-(2-(1-Ethyl-3-(trifluoromethyl)-1 H pyrazol-4-yl)phenyl)-6-(3-(pyrrolidin-2-yl)propioloyl)-4,5,6,7-tetrahydrothieno[2,3-c]pyridine-2-carbonitrile], the IC50 in experiment [1] is 0.97 µM; in experiment [2] it was 0.07 µM.

Turning to `CCn1cc(-c2ccccc2[C@@H]2CN(C(=O)C#C[C@]3(C)CCCN3)Cc3sc(C#N)cc32)c(C(F)(F)F)n1` [Example 140, (S)-4-(2-(1-Ethyl-3-(trifluoromethyl)-1 H-pyrazol-4-yl)phenyl)-6-(3-((S)-2-methylpyrrolidin-2-yl)propioloyl)-4,5,6,7-tetrahydrothieno[2,3-c]pyridine-2-carbonitrile], the IC50 in experiment [1] came out at 2.36 µM; in experiment [2] it was 0.12 µM.

As for `CCn1cc(-c2ccccc2[C@@H]2CN(C(=O)C#C[C@@]3(C)CCCN3)Cc3sc(C#N)cc32)c(C(F)(F)F)n1` [Example 141, (S)-4-(2-(1-Ethyl-3-(trifluoromethyl)-1 H pyrazol-4-yl)phenyl)-6-(3-((R)-2-methylpyrrolidin-2-yl)propioloyl)-4,5,6,7-tetrahydrothieno[2,3-c]pyridine-2-carbonitrile], the IC50 in experiment [1] was determined as 4.88 µM; in experiment [2], 0.35 µM.

Turning to `CCn1cc(-c2ccccc2[C@@H]2CN(C(=O)C#CCOC)Cc3sc(C#N)cc32)c(C(F)(F)F)n1` [Example 144, (S)-4-(2-(1-Ethyl-3-(trifluoromethyl)-1 H pyrazol-4-yl)phenyl)-6-(4-methoxybut-2-ynoyl)-4,5,6,7-tetrahydrothieno[2,3-c]pyridine-2-carbonitrile], the IC50 in experiment [1] stood at 0.792 µM; in experiment [2], 0.54 µM.

As to `CCn1cc(-c2ccccc2[C@@H]2CN(C(=O)C#CC3CCNC3)Cc3sc(C#N)cc32)c(C(F)(F)F)n1` (stereo partly drawn) [Example 146, (4S)-4-(2-(1-Ethyl-3-(trifluoromethyl)-1 H pyrazol-4-yl)phenyl)-6-(3-(pyrrolidin-3-yl)propioloyl)-4,5,6,7-tetrahydrothieno[2,3-c]pyridine-2-carbonitrile], the figures for the IC50 in experiment [1] and in experiment [2] were 0.501 µM and 1.92 µM, respectively.

As for `CCn1cc(-c2ccccc2[C@@H]2CN(C(=O)C#CC3CNC3)Cc3sc(C#N)cc32)c(C(F)(F)F)n1` [Example 147, (S)-6-(3-(Azetidin-3-yl)propioloyl)-4-(2-(1-ethyl-3-(trifluoromethyl)-1 H pyrazol-4-yl)phenyl)-4,5,6,7-tetrahydrothieno[2,3-c]pyridine-2-carbonitrile], the IC50 in experiment [1] is 3.47 µM; in experiment [2] it was 0.62 µM.

(Values after patent US20240360148A1 (SUVALENT THERAPEUTICS, INC., priority 2021, published 2024).)
